This note sets out measurements from a melting point compilation (Tetko et al.; mined from patent text by program, amines drawn as free bases though some values may be those of a salt).

Structures are written as SMILES.

As a reminder, the melting point is the temperature, or range, at which the solid turns liquid. With `CCOC(=O)Cc1csc(-c2cc3cccc(NS(=O)(=O)c4cccs4)c3[nH]2)n1`, the melting point fell in the range of 161 to 162 °C. Under `CC(C)Oc1ccc([N+](=O)[O-])cc1NC(=O)Nc1cccnc1` stands 231 to 232 °C; under `COc1ccccc1[C@@]1(O)[C@@H]2CNC[C@@H]2C(c2ccccc2)(c2ccccc2)C[C@@H]1O`, 230 °C; under `O=C(O)c1nc(-c2ccc(Cl)cc2Cl)n(-c2ccc(Cl)cc2)c1CO`, 138 °C. `COc1ccc(N2CCN(c3ccc(OC)nc3-c3ccc(C)cc3)CC2)cc1` registered a melting point of 143 to 146 °C.

In the case of `CCCOCCOc1cc2c(-c3ccccc3)c(CC(=O)Nc3ccc(Cl)cc3C(F)(F)F)c(=O)oc2cc1Cl`, the melting point lay in the range of 170 to 171 °C. `O=C(CC1CCOCC1)N[C@H]1CC[C@H](CCN2CCC(c3ccc(F)c4occc34)CC2)CC1` displayed a melting point of 188 °C. With `OCC1CCc2c([nH]c3ccc(Cl)cc23)C1` (centres undefined) the figure was 168 to 169 °C; with `CCOC(=O)c1ccc([N+](=O)[O-])cc1CBr`, 65 to 66 °C; with `CN(C)c1ccc(C(=O)NC2CCN(C(c3ccccc3)c3ccccc3)CC2)c([N+](=O)[O-])c1`, 183 °C.

For `CC(C)(C)OC(=O)NCCCCCC(=O)O`, the melting point was in the range of 39 to 42 °C. The compound `Cc1ccccc1Cc1nc[nH]c1C` displayed a melting point of 138 to 140 °C. For the compound `CC(C)c1c(C(=O)c2ccccc2)n(COCc2ccccc2)c(=O)[nH]c1=O`, the melting point was 184 °C. Under `CS(=O)(=O)Nc1cc(NC(=O)CCl)c([N+](=O)[O-])cc1Oc1ccccc1` stands 194 to 195 °C; under `CC(=O)Nc1sc2c(c1C(=O)c1ccco1)CCCC2`, 126 to 127 °C. Under `C=CCc1c2c(cc(OCc3ccccc3)c1C(C)(C)C)CC(C)(C)O2` stands 73 to 74 °C. Under `Nc1nc2c(Cc3ccccn3)c[nH]c2c(=O)[nH]1` stands 280 to 282 °C; under `CSc1cc(OCCC[Si](C)(C)C)c(Cl)cc1NC=NC#N`, 94 to 96 °C; under `O=C(O)COc1ccc2c(c1)Cc1sc(S(=O)(=O)CCC(c3ccccc3)c3ccccc3)nc1-2`, 172 to 174 °C. Take `O=c1ccc(-c2c(-c3ccccc3)nn3ccccc23)nn1C1=C(CCO)CCCC1`: the melting point was 198 to 199 °C. Under `CCN(CC)C(=O)COc1cc(N)c(Cl)cc1C(=O)OC` stands 97.5 to 99.5 °C.

`CC#CCOc1ccc(/C=C/C(=O)Nc2ccccc2C(=O)O)cc1OC` returned a melting point of 194 to 195 °C.

With `CCOC(=O)c1nnc(-c2ccc(S(C)=O)cc2)o1` (centres undefined), the melting point lay within 129 to 131 °C. In turn, `CN(C)C1CC2=CN(S(=O)(=O)c3ccccc3)C=C3C=CC(=O)CC1=C32` (centres undefined) gave a melting point of 114 to 116 °C. Under `O=C1c2ccccc2C(=O)N1CCc1ccc2c(c1)OCO2` stands 139 to 140 °C; under `CCOC(=O)Nc1ccc2sc(C)cc(=O)c2c1`, 219 to 220 °C; under `CCC(Oc1ccc(C)cc1C)C(=O)OC1CC(O)C=C2C=CC(C)C(CCC3CC(O)CC(=O)O3)C21` (mixture of isomers), 159 to 160 °C. For `Cc1ccc2cccc(OCc3c(Cl)ccc(S(=O)(=O)N4CCC[C@H]4C(=O)NCCCNC(=O)c4ccc(C(N)=NO)cc4)c3Cl)c2n1`, the melting point is 120 to 124 °C. For `CN1CCN(c2cccc3c2C[C@H](N(C)C(=O)c2ccc(C(F)(F)F)cc2)CC3)CC1`, the melting point lay in the range of 123 to 125 °C.

Compound `O=C1c2ccc(-c3nnn[nH]3)cc2C(=O)c2cc(N3CCCCC3)ccc21` showed a melting point of 297 to 298 °C. For `CC(=O)NCCNc1nc(Nc2ccc3[nH]nnc3c2)ncc1C(F)(F)F`, the melting point was more than 300 °C.

As to `COC(=O)C#CC(=O)c1ccc(OC)c(OC)c1OC`, the melting point was determined as 74 °C. In the case of `Cc1nc(C(C)O)cn1Cc1ccccc1` (centres undefined), the melting point was in the range of 162 to 168 °C. With `Cc1ccc(C(=S)c2[nH]c3cc(Cl)ccc3c2N)cc1` the figure was 172 to 173 °C.
